The values below come from patent US20250302832A1, “PYRAZINE DERIVATIVES AND USES THEREOF” (FOGHORN THERAPEUTICS INC., priority 2022, published 2025).

Assay [1] has as its target T1, HiBit-BRG1 fusion protein (Homo sapiens, UniProt P51532).
T1 construct: expressed in transfected cells
The assay is described as follows: HiBiT-BRG1 cell-based degradation assay (Nano-Glo HiBiT lytic detection, 24 h). Conditions: HeLa cell line expressing HiBit-BRG1 and LgBit; for Dmax: read-out: BRG1 HiBit Degradation Maximum (%); for DC50: read-out: BRMG1 HiBit Degradation IC50. The protocol: Procedure: A stable HeLa cell line expressing HiBiT-BRM was generated. On day 0, 5000 cells were seeded in 40 μL of media into each well of 384-well cell culture plates. […] Subsequently plates were incubated for 24 h in a standard tissue culture incubator and equilibrated at room temperature for 15 minutes. Nano-GB HiBiT Lytic Detection System (Promega N3050) reagent was freshly prepared and 20 ul was added to each well. Upon addition of this LgBit-containing reagent, the HiBiT and LgBiT proteins associate to form the luminescent NanoBiT luciferase. The plates were shaken for 10 minutes at room temperature and the bioluminescence read using an EnVision plate reader (PerkinElmer).
For measurement of BRG1 degradation, a stable HeLa cell line expressing HiBit-BRG1 and LgBit was generated. The same protocol as above was then followed.
(§1) The degradation % was calculated using the following formula: % degradation=100%−100%×(Lumsample−LuMLC)/(LuMHC−LuMLC). DMSO treated cells are employed as High Control (HC) and 2 μM of a known BRM/BRG1 degrader standard treated cells are employed as Low Control (LC).
Background: HiBiT is a short tag that completes a luciferase, so light tracks the accessible tagged protein.

The target in assay [2] is T2, HiBit-BRM fusion protein (Homo sapiens, UniProt P51531).
T2 construct: expressed in transfected cells
Kind of assay: HiBiT-BRM cell-based degradation assay (Nano-Glo HiBiT lytic detection, 24 h). To be noted: HeLa cell line expressing HiBiT-BRM; for DC50: read-out: BRM HiBit Degradation IC50. The protocol: Procedure: A stable HeLa cell line expressing HiBiT-BRM was generated. On day 0, 5000 cells were seeded in 40 μL of media into each well of 384-well cell culture plates. On day 1, cells were treated with 120 nL DMSO or 120 nL of 3-fold serially DMSO-diluted compounds (10 points in duplicate with 30 μM as final top dose). Subsequently plates were incubated for 24 h in a standard tissue culture incubator and equilibrated at room temperature for 15 minutes. Nano-GB HiBiT Lytic Detection System (Promega N3050) reagent was freshly prepared and 20 ul was added to each well. Upon addition of this LgBit-containing reagent, the HiBiT and LgBiT proteins associate to form the luminescent NanoBiT luciferase. The plates were shaken for 10 minutes at room temperature and the bioluminescence read using an EnVision plate reader (PerkinElmer).
as §1

The structures appear in SMILES notation. Some results are limits rather than exact numbers.

T1 sequence (P51532 whole entry, the tested form may be a part): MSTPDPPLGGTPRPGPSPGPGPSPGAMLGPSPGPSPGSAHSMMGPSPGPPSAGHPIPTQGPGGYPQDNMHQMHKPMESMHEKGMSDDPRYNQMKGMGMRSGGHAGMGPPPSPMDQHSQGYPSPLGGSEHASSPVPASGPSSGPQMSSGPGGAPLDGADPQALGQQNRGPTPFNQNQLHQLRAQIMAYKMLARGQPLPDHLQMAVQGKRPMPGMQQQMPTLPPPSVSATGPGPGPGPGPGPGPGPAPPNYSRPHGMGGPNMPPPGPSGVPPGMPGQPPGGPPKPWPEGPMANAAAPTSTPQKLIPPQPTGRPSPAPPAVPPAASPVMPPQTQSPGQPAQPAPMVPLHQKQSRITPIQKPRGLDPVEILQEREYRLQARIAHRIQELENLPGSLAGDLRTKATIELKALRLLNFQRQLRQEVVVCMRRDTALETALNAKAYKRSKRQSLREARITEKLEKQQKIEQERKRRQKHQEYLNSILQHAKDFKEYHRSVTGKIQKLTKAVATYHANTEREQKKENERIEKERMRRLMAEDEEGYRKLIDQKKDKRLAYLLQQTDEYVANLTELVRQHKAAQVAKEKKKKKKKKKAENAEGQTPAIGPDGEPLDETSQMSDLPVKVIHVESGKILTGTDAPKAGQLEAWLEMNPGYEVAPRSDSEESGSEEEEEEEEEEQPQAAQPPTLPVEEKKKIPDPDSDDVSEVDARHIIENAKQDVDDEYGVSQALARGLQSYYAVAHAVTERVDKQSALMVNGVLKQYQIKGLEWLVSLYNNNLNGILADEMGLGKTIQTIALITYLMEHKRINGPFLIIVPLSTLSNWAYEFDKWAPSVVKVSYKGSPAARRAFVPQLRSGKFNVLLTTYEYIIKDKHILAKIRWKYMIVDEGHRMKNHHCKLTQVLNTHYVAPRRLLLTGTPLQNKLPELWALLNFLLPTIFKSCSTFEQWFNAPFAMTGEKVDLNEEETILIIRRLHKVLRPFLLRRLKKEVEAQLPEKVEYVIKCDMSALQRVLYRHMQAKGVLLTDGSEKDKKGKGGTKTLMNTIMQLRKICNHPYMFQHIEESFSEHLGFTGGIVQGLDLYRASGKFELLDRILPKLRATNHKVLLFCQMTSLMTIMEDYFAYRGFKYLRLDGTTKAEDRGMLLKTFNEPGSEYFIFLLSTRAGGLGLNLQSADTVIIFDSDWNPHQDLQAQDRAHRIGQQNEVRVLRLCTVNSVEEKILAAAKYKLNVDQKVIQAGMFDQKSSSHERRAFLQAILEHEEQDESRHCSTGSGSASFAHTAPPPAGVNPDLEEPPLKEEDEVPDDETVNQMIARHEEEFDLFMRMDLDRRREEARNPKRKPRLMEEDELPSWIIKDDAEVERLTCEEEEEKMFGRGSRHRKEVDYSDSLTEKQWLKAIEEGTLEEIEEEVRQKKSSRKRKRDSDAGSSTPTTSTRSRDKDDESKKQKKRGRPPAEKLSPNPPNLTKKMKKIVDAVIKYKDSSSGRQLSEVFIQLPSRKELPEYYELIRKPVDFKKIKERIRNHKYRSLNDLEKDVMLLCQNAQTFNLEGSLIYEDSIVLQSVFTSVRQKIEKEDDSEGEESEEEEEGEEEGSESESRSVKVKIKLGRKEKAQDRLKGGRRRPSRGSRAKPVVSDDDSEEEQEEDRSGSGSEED
T2 sequence (P51531 whole entry, the tested form may be a part): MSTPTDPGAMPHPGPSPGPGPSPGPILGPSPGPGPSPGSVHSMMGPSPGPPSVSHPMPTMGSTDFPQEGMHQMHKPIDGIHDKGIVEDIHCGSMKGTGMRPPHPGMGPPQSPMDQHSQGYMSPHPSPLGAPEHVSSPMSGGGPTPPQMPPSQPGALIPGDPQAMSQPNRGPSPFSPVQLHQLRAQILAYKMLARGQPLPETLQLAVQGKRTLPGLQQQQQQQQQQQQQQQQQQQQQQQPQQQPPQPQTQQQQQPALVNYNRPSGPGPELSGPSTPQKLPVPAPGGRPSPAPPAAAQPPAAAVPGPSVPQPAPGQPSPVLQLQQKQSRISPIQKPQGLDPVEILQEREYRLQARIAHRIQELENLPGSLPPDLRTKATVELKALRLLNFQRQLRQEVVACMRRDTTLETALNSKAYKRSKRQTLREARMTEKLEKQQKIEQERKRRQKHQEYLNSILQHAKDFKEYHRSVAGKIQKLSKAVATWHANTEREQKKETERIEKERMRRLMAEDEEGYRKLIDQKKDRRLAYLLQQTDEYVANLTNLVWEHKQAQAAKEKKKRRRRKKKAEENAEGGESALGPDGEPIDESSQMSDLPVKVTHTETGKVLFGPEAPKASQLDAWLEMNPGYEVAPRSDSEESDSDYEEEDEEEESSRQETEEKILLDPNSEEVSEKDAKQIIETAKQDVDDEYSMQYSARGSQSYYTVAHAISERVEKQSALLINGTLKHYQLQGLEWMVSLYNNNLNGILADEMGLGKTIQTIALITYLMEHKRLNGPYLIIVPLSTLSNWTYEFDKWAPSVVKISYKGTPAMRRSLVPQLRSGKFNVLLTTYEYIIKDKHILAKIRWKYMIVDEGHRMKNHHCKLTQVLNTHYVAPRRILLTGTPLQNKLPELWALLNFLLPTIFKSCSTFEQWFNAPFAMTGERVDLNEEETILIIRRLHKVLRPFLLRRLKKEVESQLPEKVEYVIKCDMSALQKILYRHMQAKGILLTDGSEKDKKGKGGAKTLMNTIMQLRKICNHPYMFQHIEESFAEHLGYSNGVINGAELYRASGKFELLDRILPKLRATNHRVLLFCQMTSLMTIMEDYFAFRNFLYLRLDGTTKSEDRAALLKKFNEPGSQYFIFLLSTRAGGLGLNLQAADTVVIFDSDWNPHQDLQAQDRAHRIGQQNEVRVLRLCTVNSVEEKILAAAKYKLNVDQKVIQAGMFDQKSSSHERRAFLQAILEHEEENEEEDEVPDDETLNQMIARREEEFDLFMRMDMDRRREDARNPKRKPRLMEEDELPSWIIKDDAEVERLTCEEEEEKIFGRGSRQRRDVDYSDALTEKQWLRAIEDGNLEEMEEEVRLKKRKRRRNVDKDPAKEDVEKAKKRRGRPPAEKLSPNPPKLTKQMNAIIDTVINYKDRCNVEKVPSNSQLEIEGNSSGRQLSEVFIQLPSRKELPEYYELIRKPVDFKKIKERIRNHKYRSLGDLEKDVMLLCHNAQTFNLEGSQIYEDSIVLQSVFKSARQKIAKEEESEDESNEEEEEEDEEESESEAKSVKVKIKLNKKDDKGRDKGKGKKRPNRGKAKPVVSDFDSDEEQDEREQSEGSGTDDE

`Cc1ncsc1-c1ccc(CNC(=O)[C@@H]2C[C@@H](O)CN2C(=O)[C@@H](c2cc(N3CC4(CC(c5cc6nnc(-c7ccccc7O)cc6n5C5CCC5)C4)C3)no2)C(C)C)cc1` [Compound 48, (2S,4R)-1-((R)-2-(3-(6-(5-cyclobutyl-3-(2-hydroxyphenyl)-5H-pyrrolo[3,2-c]pyridazin-6-yl)-2-azaspiro[3.3]heptan-2-yl)isoxazol-5-yl)-3-methylbutanoyl)-4-hydroxy-N-(4-(4-methylthiazol-5-yl)benzyl)pyrrolidine-2-carboxamide]: the Dmax in assay [1] is below 50%. For the same molecule, in assay [2], the “BRM HiBit Degradation Maximum (%)” value is reported as “A (“A” indicates maximum degradation ≥75%)” and the DC50 is above 10 nM.
`Cc1ncsc1-c1ccc([C@H](C)NC(=O)[C@@H]2C[C@@H](O)CN2C(=O)[C@@H](c2cc(N3CCC(c4cc5nnc(-c6ccccc6O)cc5n4C4CC4)CC3)no2)C(C)C)cc1` [Compound 76, (2S,4R)-1-((R)-2-(3-(4-(5-cyclopropyl-3-(2-hydroxyphenyl)-5H-pyrrolo[3,2-c]pyridazin-6-yl)piperidin-1-yl)isoxazol-5-yl)-3-methylbutanoyl)-4-hydroxy-N-((S)-1-(4-(4-methylthiazol-5-yl)phenyl)ethyl)pyrrolidine-2-carboxamide]: in assay [1], the Dmax is below 50%. Also, in assay [2], the “BRM HiBit Degradation Maximum (%)” value was “A (“A” indicates maximum degradation ≥75%)” and the DC50 was below 10 nM.
Consider `CC(C)C(C(=O)N1C[C@H](O)C[C@H]1C(=O)NC12CC(C1)C2)c1cc(N2CC3(CC(c4cc5nnc(-c6ccccc6O)cc5n4C4CCC4)C3)C2)no1` (stereo partly drawn) [Compound 120, (2S,4R)-N-(bicyclo[1.1.1]pentan-1-yl)-1-(2-(3-(6-(5-cyclobutyl-3-(2-hydroxyphenyl)-5H-pyrrolo[3,2-c]pyridazin-6-yl)-2-azaspiro[3.3]heptan-2-yl)isoxazol-5-yl)-3-methylbutanoyl)-4-hydroxypyrrolidine-2-carboxamide], for which, in assay [1], the Dmax is below 50%. In assay [2], the “BRM HiBit Degradation Maximum (%)” value was “A (“A” indicates maximum degradation ≥75%)” and the DC50 is above 10 nM.
Take `Cc1ncsc1-c1ccc([C@H](C)NC(=O)[C@@H]2C[C@@H](O)CN2C(=O)[C@@H](c2cc(-c3cnc(N4CC[C@@H](c5cc6nnc(-c7cccc(F)c7O)cc6n5C5CC5)C4)nc3)no2)C(C)C)cc1` [Compound 106, (2S,4R)-1-((R)-2-(3-(2-((R)-3-(5-cyclopropyl-3-(3-fluoro-2-hydroxyphenyl)-5H-pyrrolo[3,2-c]pyridazin-6-yl)pyrrolidin-1-yl)pyrimidin-5-yl)isoxazol-5-yl)-3-methylbutanoyl)-4-hydroxy-N-((S)-1-(4-(4-methylthiazol-5-yl)phenyl)ethyl)pyrrolidine-2-carboxamide]: the Dmax in assay [1] is below 50%. In assay [2], the “BRM HiBit Degradation Maximum (%)” value is on record as “B (“B” indicates maximum degradation ≥50%)” and the DC50 is above 10 nM.
Take `Cc1ncsc1-c1ccc([C@H](C)NC(=O)[C@@H]2C[C@@H](O)CN2C(=O)[C@@H](c2cc(N3CC[C@@H](c4cc5nnc(-c6ccccc6O)cc5n4C4CCC4)C3)no2)C(C)C)cc1` [Compound 88, (2S,4R)-1-((R)-2-(3-((R)-3-(5-cyclobutyl-3-(2-hydroxyphenyl)-5H-pyrrolo[3,2-c]pyridazin-6-yl)pyrrolidin-1-yl)isoxazol-5-yl)-3-methylbutanoyl)-4-hydroxy-N-((S)-1-(4-(4-methylthiazol-5-yl)phenyl)ethyl)pyrrolidine-2-carboxamide]: in assay [1], the Dmax is above 75% and the DC50 was above 10 nM. For the same molecule, in assay [2], the “BRM HiBit Degradation Maximum (%)” value is on record as “A (“A” indicates maximum degradation ≥75%)” and the DC50 was below 10 nM.
For `Cc1ncsc1-c1ccc([C@H](C)NC(=O)[C@@H]2C[C@@H](O)CN2C(=O)[C@@H](c2cc(N3CCC(N4CC(c5cc6nnc(-c7ccccc7O)cc6[nH]5)C4)CC3)no2)C(C)C)cc1` [Compound 5, (2S,4R)-4-hydroxy-1-((R)-2-(3-(4-(3-(3-(2-hydroxyphenyl)-5H-pyrrolo[3,2-c]pyridazin-6-yl)azetidin-1-yl)piperidin-1-yl)isoxazol-5-yl)-3-methylbutanoyl)-N-((S)-1-(4-(4-methylthiazol-5-yl)phenyl)ethyl)pyrrolidine-2-carboxamide], in assay [1], the Dmax is above 75% and the DC50 is above 100 nM. In assay [2], the “BRM HiBit Degradation Maximum (%)” value is reported as “A (“A” indicates maximum degradation ≥75%)” and the DC50 was below 10 nM.
In the case of `C#Cc1ccc([C@H](C)NC(=O)[C@@H]2C[C@@H](O)CN2C(=O)C(c2cc(N3CC4(CC(c5cc6nnc(-c7ccccc7O)cc6n5C5CCC5)C4)C3)no2)C(C)C)cc1` (stereo partly drawn) [Compound 60, (2S,4R)-1-(2-(3-(6-(5-cyclobutyl-3-(2-hydroxyphenyl)-5H-pyrrolo[3,2-c]pyridazin-6-yl)-2-azaspiro[3.3]heptan-2-yl)isoxazol-5-yl)-3-methylbutanoyl)-N-((S)-1-(4-ethynylphenyl)ethyl)-4-hydroxypyrrolidine-2-carboxamide], the Dmax in assay [1] was below 50%. For the same molecule, in assay [2], the “BRM HiBit Degradation Maximum (%)” value is given as “A (“A” indicates maximum degradation ≥75%)” and the DC50 was below 10 nM.
As for `CC(C)C(C(=O)N1C[C@H](O)C[C@H]1C(=O)NCC1CC1)c1cc(N2CC3(CC(c4cc5nnc(-c6ccccc6O)cc5n4C4CCC4)C3)C2)no1` (stereo partly drawn) [Compound 55, (2S,4R)-1-(2-(3-(6-(5-cyclobutyl-3-(2-hydroxyphenyl)-5H-pyrrolo[3,2-c]pyridazin-6-yl)-2-azaspiro[3.3]heptan-2-yl)isoxazol-5-yl)-3-methylbutanoyl)-N-(cyclopropylmethyl)-4-hydroxypyrrolidine-2-carboxamide], in assay [1], the Dmax was below 50%. In assay [2], the “BRM HiBit Degradation Maximum (%)” value is “A (“A” indicates maximum degradation ≥75%)” and the DC50 is above 10 nM.
Consider `Cc1ncsc1-c1ccc([C@H](C)NC(=O)[C@@H]2C[C@@H](O)CN2C(=O)[C@@H](c2cc(N3CCC(C(=O)N4CC(c5cc6nnc(-c7ccccc7O)cc6[nH]5)C4)CC3)no2)C(C)C)cc1` [Compound 6], for which, in assay [1], the Dmax was above 75% and the DC50 was above 100 nM. In addition, in assay [2], the “BRM HiBit Degradation Maximum (%)” value is listed as “A (“A” indicates maximum degradation ≥75%)” and the DC50 is above 10 nM.
For `Cc1ncsc1-c1ccc([C@H](C)NC(=O)[C@@H]2C[C@@H](O)CN2C(=O)[C@@H](C(C)C)n2cc(-c3cnc(N4CC[C@H](c5cc6nnc(-c7ccccc7O)cc6n5C5CC5)C4)nc3)nn2)cc1` [Compound 75, (2S,4R)-1-((R)-2-(4-(2-((S)-3-(5-cyclopropyl-3-(2-hydroxyphenyl)-5H-pyrrolo[3,2-c]pyridazin-6-yl)pyrrolidin-1-yl)pyrimidin-5-yl)-1H-1,2,3-triazol-1-yl)-3-methylbutanoyl)-4-hydroxy-N—((S)-1-(4-(4-methylthiazol-5-yl)phenyl)ethyl)pyrrolidine-2-carboxamide], the Dmax in assay [1] is below 50%. In assay [2], the “BRM HiBit Degradation Maximum (%)” value is on record as “A (“A” indicates maximum degradation ≥75%)” and the DC50 is above 10 nM.
For the molecule `Cc1ncsc1-c1ccc([C@H](C)NC(=O)[C@@H]2C[C@@H](O)CN2C(=O)[C@@H](c2cc(-c3cnc(N4CCC(c5cc6nnc(-c7ccccc7O)cc6n5C5CCC5)CC4)nc3)no2)C(C)C)cc1` [Compound 46], in assay [1], the Dmax was below 50%. The “BRM HiBit Degradation Maximum (%)” value in assay [2] was “C (“C” indicates maximum degradation <50%)”.
`Cc1ncsc1-c1ccc([C@H](C)NC(=O)[C@@H]2C[C@@H](O)CN2C(=O)[C@H](c2cc(-c3cnc(N4CCC(c5cc6nnc(-c7ccccc7O)cc6n5C(C)C)CC4)nc3)no2)C(C)C)cc1` [Compound 44]: the Dmax in assay [1] is below 50%. For the same molecule, in assay [2], the “BRM HiBit Degradation Maximum (%)” value was “B (“B” indicates maximum degradation ≥50%)” and the DC50 was below 10 nM.
As to `Cc1ncsc1-c1ccc([C@H](C)NC(=O)[C@@H]2C[C@@H](O)CN2C(=O)[C@@H](c2cc(N3CC4(CC(c5cc6nnc(-c7ccccc7O)cc6n5C56CC(C5)C6)C4)C3)no2)C(C)C)cc1` [Compound 65, (2S,4R)-1-((R)-2-(3-(6-(5-(bicyclo[1.1.1]pentan-1-yl)-3-(2-hydroxyphenyl)-5H-pyrrolo[3,2-c]pyridazin-6-yl)-2-azaspiro[3.3]heptan-2-yl)isoxazol-5-yl)-3-methylbutanoyl)-4-hydroxy-N-((S)-1-(4-(4-methylthiazol-5-yl)phenyl)ethyl)pyrrolidine-2-carboxamide], in assay [1], the Dmax is below 50%. In assay [2], the “BRM HiBit Degradation Maximum (%)” value is “A (“A” indicates maximum degradation ≥75%)” and the DC50 is below 10 nM.
